Assay results published in publication PMC5310922, “A high-throughput phenotypic screen identifies clofazimine as a potential treatment for cryptosporidiosis” (PLoS Neglected Tropical Diseases, 2017).
Like-named read-outs stand apart in the source and are kept apart here.

Legend:
[1] = HEK293T 72 h cytotoxicity (CellTiter-Glo); type: cell-based, human; details: human
Method: (§1) Two mammalian cell lines were used for counter-screening for general cytotoxicity of hit compounds: human embryonic kidney cells (HEK293T; ATCC CRL-3216) and human hepatocellular carcinoma cells (HepG2; ATCC HB-8065). […] Compounds were pre-spotted into tissue culture-treated white solid-bottomed 1536-well plates (Greiner) in a 1:3 dose-response dilution (top concentration 20 μM). HEK293T and HepG2 cells were diluted to 75×10^3 cells/mL and 150×10^3 cells/mL, respectively, and 5 μL/well were dispensed into assay plates with a MultiFlo FX Multi-Mode Dispenser (Biotek). […] At the completion of the assay, CellTiter-Glo (Promega) was prepared at 1:2 (reagent:water) of the manufacturer’s instructions, and 2 μL were dispensed into each well. After a 5 min incubation at room temperature, luminescence readings were measured with an EnVision Multilabel Plate Reader (Perkin Elmer). […] were uploaded into Genedata Screener (v13.0-Standard), and data normalized to DMSO- and puromycin-treated wells. A four-parameter non-linear regression curve fit was applied to dose-response data using Genedata to determine the half maximal cytotoxic concentration (CC50) of each compound.

[2] = tested on: Cryptosporidium hominis (TU502); experiment: C. hominis proliferation in HCT-8 cells, 48 h high-content imaging assay; type: cell-based; details: read-out: C. hominis 48H Assay EC50 [µM] (SD; n)
Method: Methods for continuous, in vitro cultivation of Cryptosporidium spp. have not been well established. Instead, in vivo oocyst propagation of C. parvum is performed in calves, a more promiscuous Cryptosporidium species for animal and human infections. For C. hominis, gnotobiotic piglets are the primary means of propagation. The calf is the more accessible model, making C. parvum the more convenient species to screen. However, C. hominis is equally clinically relevant with regards to human cryptosporidiosis. […] High purity powders of the 10 filtered C. parvum Bioactives screen hits and both GHCDL screen hits were tested against C. hominis (TU502) to confirm activity against both species.
(§2) Cells were then plated (5 μL/well) into 1536-well assay plates at a density of 5.5×10^5 cells/mL (2,750 cells/well).
C. parvum oocysts (Iowa strain, isolated from infected calves) were purchased from the Sterling Parasitology Laboratory, University of Arizona, and stored at 4°C for ≤ 3 months in an antibiotic solution (0.01% Tween 20 containing 100 U/mL penicillin and 100 μg/mL gentamicin). C. hominis oocysts (TU502, isolated from gnotobiotic piglets) were purchased from the Tzipori Laboratory, Cummings School of Veterinary Medicine, Tufts University, and stored at 4°C for ≤ 2 weeks in an antibiotic solution (100 U/mL penicillin and 100 μg/mL streptomycin). For infection of assay plates, 24 h after cell seeding, oocysts were excysted and prepared for inoculation as previously described. Briefly, the oocysts were diluted into 1 mL pre-warmed 10 mM HCl and then incubated in a 37°C water bath for 10 min. Oocysts were then pelleted at 3,000×g for 1 min in a microcentrifuge (Thermo), and the supernatant was carefully aspirated. Oocysts were resuspended in 2 mM sodium taurocholate in DPBS++ (with 0.9 mM CaCl2 and 0.5 mM MgCl2) and incubated at room temperature for 20 min. After incubation in bile salts, the oocysts were diluted 1:100 and free sporozoites and intact oocysts were enumerated to determine the percentage of excystation.
Plates were then washed twice with phosphate buffered saline (PBS). […] To prevent non-specific binding, the cells were blocked with SuperBlock™ T20 blocking agent (Thermo) for 1 h at room temperature. Cryptosporidium parasites were stained with 1 μg/mL fluorescein isothiocyanate (FITC)-conjugated Vicia villosa lectin (Vector Laboratories) in 1:10 diluted SuperBlock™ in PBS-T, supplemented with 3 μM 4',6-diamidino-2-phenylindole (DAPI) to visualize host cell nuclei. Staining was for 1 h at room temperature in the dark. Finally, cells were washed twice with PBS-T and the plates were sealed with adhesive foil. The plates were imaged with a CellInsight CX5 High Content Screening Platform (Thermo) with a 10× objective. […] The software identified primary objects (HCT-8 host cells) and spots within allowed distances to the nuclei (Cryptosporidium). Both cytotoxicity against HCT-8 cells (number of nuclei relative to DMSO-treated controls) and Cryptosporidium inhibition (spot counts relative to DMSO-treated controls) were assessed.
Images were processed by the HCS Studio Scan software, and Selected Object Count (HCT-8 cells) and Spot Count (Cryptosporidium) were analyzed in Genedata Screener (v13.0-Standard). Spot Count and Selected Object Count were normalized to neutral controls minus inhibitors (floxuridine for Spot Count, and puromycin for Selected Object Count).

[3] = HCT-8 host cell cytotoxicity, 48 h (nuclei count); details: human
Method: as §2
(§3) Plates were then washed twice with phosphate buffered saline (PBS). […] To prevent non-specific binding, the cells were blocked with SuperBlock™ T20 blocking agent (Thermo) for 1 h at room temperature. Cryptosporidium parasites were stained with 1 μg/mL fluorescein isothiocyanate (FITC)-conjugated Vicia villosa lectin (Vector Laboratories) in 1:10 diluted SuperBlock™ in PBS-T, supplemented with 3 μM 4',6-diamidino-2-phenylindole (DAPI) to visualize host cell nuclei. Staining was for 1 h at room temperature in the dark. Finally, cells were washed twice with PBS-T and the plates were sealed with adhesive foil. The plates were imaged with a CellInsight CX5 High Content Screening Platform (Thermo) with a 10× objective. […] For 1536-well format assays (primary screening, triplicate reconfirmation, and dose-response reconfirmation, one microscopic field (802,511.39 μm^2) per well, and for the 384-well washout assay, 4 fields per well were captured. The software identified primary objects (HCT-8 host cells) and spots within allowed distances to the nuclei (Cryptosporidium). Both cytotoxicity against HCT-8 cells (number of nuclei relative to DMSO-treated controls) and Cryptosporidium inhibition (spot counts relative to DMSO-treated controls) were assessed.
(§4) Images were processed by the HCS Studio Scan software, and Selected Object Count (HCT-8 cells) and Spot Count (Cryptosporidium) were analyzed in Genedata Screener (v13.0-Standard). Spot Count and Selected Object Count were normalized to neutral controls minus inhibitors (floxuridine for Spot Count, and puromycin for Selected Object Count). For single-point primary assay plates, an additional run-wise median correction was applied to reduce screen artifacts (e.g. uneven dispense), whereas no correction was applied to triplicate reconfirmation and dose-response plates. For primary screening, a compound is considered a hit by a ≥ 70% reduction in Corrected Spot Count. Compounds that caused moderate cytotoxicity were filtered out (i.e., excluding all Corrected Selected Object Counts ≤ -60%). Dose-response curves were fit with Genedata Analyzer using the Smart Fit function.

[4] = HepG2 72 h cytotoxicity (CellTiter-Glo); type: cell-based, human; details: human
Method: as §1

[5] = tested on: Cryptosporidium parvum; experiment: C. parvum proliferation in HCT-8 cells, 48 h high-content imaging assay; type: cell-based, Cryptosporidium parvum (Iowa strain); details: for EC50: 48 h; for EC99 against C. parvum: concentration used in washout assay
[6] = tested on: HEK293T; experiment: HEK293T 72 h cytotoxicity (CellTiter-Glo); type: cell-based, human
Method: as §1

[7] = tested on: HCT-8 (Host cells); experiment: in vitro
Method: as §2, §3, §4

[8] = tested on: HepG2; experiment: HepG2 72 h cytotoxicity (CellTiter-Glo); type: cell-based, human
Method: as §1

[9] = tested on: C. parvum; experiment: Washout assay: 3-h treatments over the asexual life cycle of C. parvum
Method: We examined short, three-hour compound treatments of in vitro cultures, followed by compound washout, that covered the complete asexual life cycle, believed to be 13–15 h post invasion [36]. […] The treatment interval lasted 3 h before washout with fresh medium; infected cells were allowed to grow until 48 h post infection before fixation. […] As CFZ is very lipophilic, we sought to determine whether intracellular accumulation was affecting the strong inhibition across each time point.
Infected cells were treated in six 3-h increments over the course of 15 h (the presumed in vitro asexual lifecycle of C. parvum). HCT-8 cells were seeded (25 μL/well) into clear-bottomed 384-well plates (Greiner) at a density of 6.0×10^5 cells/mL (15,000 cells/well) in assay medium, and allowed to grow 24 h at 37°C with 5% CO2 in a humidified tissue culture incubator, covered with a custom metal lid (The Genomics Institute of the Novartis Research Foundation) to reduce evaporation. After 24 h, and 2 h before infecting with C. parvum oocysts (time -2 hpi), the treatment time course was initiated. […] DMSO was used as a negative control. Cell medium was removed from designated wells and replaced with medium containing either compound or DMSO. […] Plates were then spun at 150×g for 3 min, and kept at 37°C with 5% CO2 in a humidified tissue culture incubator during drug treatment intervals. At the end of each 3 h time point, infected cells were carefully washed three times with fresh, pre-warmed assay medium, and the next set of wells for the subsequent time point were treated. The final time point extended to 18 h, to cover re-invasion of merozoites into new HCT-8 cells. After the final compound treatment was washed off, infected cells were allowed to grow until 48 h post infection.

[10] = tested on: C. parvum; experiment: Host cell 3-h pre-treatment, with or without wash, then C. parvum infection; type: cell-based, Cryptosporidium parvum; details: for EC50: Cryptosporidium parvum, host cells pretreated 3 h, C. parvum, 48 hpi
Method: A set of parallel wells were also treated and not washed prior to infection. 48 hpi, infected cells were imaged as described above, and EC50s for each compound pre- and post-wash were determined.

[11] = HEK293T cells, 72 h, value (SD; n), read-out: HEK293T 72H Cytotoxicity CC50 [µM] (SD; n)
[12] = Cryptosporidium hominis, in HCT-8 cells, 48 h, value (SD; n)
[13] = HepG2 cells, 72 h, value (SD; n), read-out: HepG2 72H Cytotoxicity CC50 [µM] (SD; n)
[14] = Cryptosporidium parvum, HCT-8 cells, read-out: EC50 against C. parvum
[15] = in HCT-8 cells, 48 h, value (SD; n)
[16] = in HCT-8 cells, value (SD; n), read-out: C. parvum 48H Assay EC50 [µM] (SD; n)
[17] = 72 h, value (SD; n), read-out: HEK293T 72H Cytotoxicity CC50 [µM] (SD; n)
[18] = read-out: HCT-8 (Host cells) 48H Assay CC50 [µM] (SD; n), 48 h, value (SD; n)
[19] = 72 h, value (SD; n), read-out: HepG2 72H Cytotoxicity CC50 [µM] (SD; n)
[20] = Cryptosporidium parvum, in HCT-8 cells, value (SD; n), read-out: C. parvum 48H Assay EC50 [µM] (SD; n)

Molecule | CC50 at 72 h [1, 11] [µM] | EC50 [2, 12] [µM] | CC50 at 48 h ([3]; HCT-8 cells) [nM] | CC50 at 72 h [4, 13] [µM] | EC50 [5, 14] [µM] | EC50 [2, 15] [µM] | EC50 [5, 16] [µM] | EC50 [5, 20] [µM] | other results
Cc1csc(NCC(O)c2c[nH]c3ccccc23)n1 (stereo not drawn) [GHCDL-2] | > 20 | 0.946 | > 12500 | > 20 | 0.293 | – | – | – | –
Momelotinib [Momelotinib; CYT-387] | – | – | – | – | – | 0.389 | 0.37 | – | CC50 [6]: 19 µM; CC50 [7]: 6.05 µM; CC50 [8]: 7.76 µM
Nitazoxanide | – | – | – | – | – | 2.82 | 2.84 | – | CC50 [6, 17]: > 48 µM; CC50 [7, 18]: > 10 µM; inhibition of parasite growth at all time points other than 10–13 h post infection ([9]; 3-h treatment then washout, even at 3×EC99): < 60%; CC50 [8, 19]: > 48 µM; EC50 ([5]; HCT-8 cells, read-out: EC50 against C. parvum): 2.8 µM; EC99 against C. parvum [5]: 8 µM
Oc1ccc(Cl)cc1NC(S)NC(O)c1cccc(Br)c1 (stereo not drawn) [NSC215721] | > 20 | 0.176 | > 12500 | > 20 | – | – | – | 0.278 | –
CC[C@@]1([C@@H]2O[C@@H]([C@H]3O[C@@](O)(CO)[C@H](C)C[C@@H]3C)C[C@@H]2C)CC[C@H]([C@]2(C)CC[C@]3(C[C@H](O)[C@@H](C)[C@@H]([C@@H](C)[C@@H](OC)[C@H](C)C(=O)O)O3)O2)O1 [Monensin sodium] | – | – | – | – | 0.007 | – | – | 0.00704 | CC50 at 72 h [1, 17]: 0.516 µM; EC50 ([2]; Cryptosporidium hominis, HCT-8, 48 h): 0.0103 µM; CC50 at 48 h [3]: > 12500 nM; CC50 at 72 h [4, 19]: 1.65 µM
Rocilinostat [Rocilinostat; ACY-1215] | – | – | – | – | – | 0.451 | 0.356 | – | CC50 [6]: 12.1 µM; CC50 [7]: 11.4 µM; CC50 [8]: 0.849 µM
O=c1[nH]c(=O)n([C@H]2C[C@H](O)[C@@H](CO)O2)cc1F [5-fluoro-2'-deoxyuridine; Floxuridine, 5-fluoro-2'-deoxyuridine] | – | 0.0182 | – | – | 0.017 | – | – | 0.0172 | EC50 ([10]; read-out: Post-wash EC50): 9.4 nM; EC50 ([10]; read-out: Pre-wash EC50): 53 nM; inhibition of C. parvum proliferation after compound removal by repeated washes ([10]; host cell pre-treatment, dose-response): near equipotent inhibition; CC50 at 72 h [1]: 0.0471 µM; CC50 at 48 h [3]: 154 nM; inhibition of C. parvum proliferation, every 3-h time point of the asexual life cycle ([9]; treated at EC99 for 3 h, washout, read at 48 hpi): strong inhibition of growth across all time points; CC50 at 72 h [4]: 0.214 µM; EC99 against C. parvum [5]: 0.1 µM
Cn1c2ccccc2c2c3c(c4c5ccccc5n(CCC#N)c4c21)CNC3O (stereo not drawn) [Gö 6976] | 0.124 | 0.00496 | > 12500 | > 20 | 0.0025 | – | – | 0.00245 | –
Puromycin | – | – | – | – | – | 0.742 | 0.482 | – | CC50 [6, 17]: 0.519 µM; CC50 [7, 18]: 3.15 µM; CC50 [8, 19]: 1.13 µM
COc1cc(Nc2ncc(F)c(Nc3ccc4c(n3)NC(O)C(C)(C)O4)n2)cc(OC)c1OC (stereo not drawn) [R406] | > 20 | 0.647 | > 12500 | 0.596 | – | – | – | 0.254 | –
Vorinostat [Vorinostat; SAHA] | – | – | – | – | – | – | – | – | CC50 [6]: 4.27 µM; CC50 [7]: 1.84 µM; CC50 [8]: 1.07 µM
OC1CCCC2Nc3nonc3NC(c3ccc(Cl)cc3Cl)C12 (stereo not drawn) [GHCDL-1] | > 20 | 2.82 | > 12500 | > 20 | 1.42 | – | – | – | –
